This passage reports glass transition temperature results from the PolyMetriX glass transition set.

As for `*/C(=C(/*)c1ccc(C(C)(C)C)cc1)c1ccccc1` (repeat unit), the glass transition temperature came to 200.00 °C.
Regarding `*/C=C(/*)c1c(F)c(F)c(CCCC)c(F)c1F` (repeat unit), the glass transition temperature came to 110.00 °C.
Next, `*C(=O)Nc1ccc(Oc2ccc(NC(=O)c3ccc4c(c3)C(=O)N(c3ccc(-c5sc(-c6ccc(N7C(=O)c8ccc(*)cc8C7=O)cc6)c(-c6ccccc6)c5-c5ccccc5)cc3)C4=O)cc2)cc1` (repeat unit): 320.00 °C; `*C(=O)Nc1ccc(Oc2ccc(NC(=O)c3ccc4c(c3)C(=O)N(c3ccc(S(=O)(=O)c5ccc(N6C(=O)c7ccc(*)cc7C6=O)cc5)cc3)C4=O)cc2)cc1` (repeat unit): 281.00 °C.
In the case of `*C(=O)Nc1ccc(Oc2ccc(Oc3ccc(N4C(=O)c5ccc(*)cc5C4=O)cc3)cc2)cc1` (repeat unit) it was 250.00 °C; in that of `*C(=O)Nc1ccc(Oc2ccc(Oc3ccc(NC(=O)c4ccc5c(c4)C(=O)N(c4ccc(-c6sc(-c7ccc(N8C(=O)c9ccc(*)cc9C8=O)cc7)c(-c7ccccc7)c6-c6ccccc6)cc4)C5=O)cc3)cc2)cc1` (repeat unit), 303.00 °C; in that of `*C(=O)Nc1ccc(Oc2ccc(Oc3ccc(NC(=O)c4ccc5c(c4)C(=O)N(c4ccc(Oc6ccc(C7(c8ccc(Oc9ccc(N%10C(=O)c%11ccc(*)cc%11C%10=O)cc9)cc8)CC8CC7C7CCCC87)cc6)cc4)C5=O)cc3)cc2)cc1` (repeat unit), 257.00 °C.
`*C(=O)Nc1ccc(Oc2ccc(Oc3ccc(NC(=O)c4ccc5c(c4)C(=O)N(c4ccc(Oc6ccc(N7C(=O)c8ccc(*)cc8C7=O)cc6)cc4)C5=O)cc3)cc2)cc1` (repeat unit) had a glass transition temperature of 260.00 °C.
In the case of `*C(=O)Nc1ccc(Oc2ccc(Oc3ccc(NC(=O)c4ccc5c(c4)C(=O)N(c4ccc(Oc6cccc7c(Oc8ccc(N9C(=O)c%10ccc(*)cc%10C9=O)cc8)cccc67)cc4)C5=O)cc3)cc2)cc1` (repeat unit) it was 285.00 °C; in that of `*C(=O)Nc1ccc(Oc2ccc(S(=O)(=O)c3ccc(Oc4ccc(NC(=O)c5ccc6c(c5)C(=O)N(c5ccc(Oc7ccc8ccc(Oc9ccc(N%10C(=O)c%11ccc(*)cc%11C%10=O)cc9)cc8c7)cc5)C6=O)cc4)cc3)cc2)cc1` (repeat unit), 274.00 °C; in that of `*C(=O)Nc1ccc(Oc2ccc(S(=O)(=O)c3ccc(Oc4ccc(NC(=O)c5ccc6c(c5)C(=O)N(c5ccc(Oc7cccc8c(Oc9ccc(N%10C(=O)c%11ccc(*)cc%11C%10=O)cc9)cccc78)cc5)C6=O)cc4)cc3)cc2)cc1` (repeat unit), 260.00 °C.
Take `*C(=O)Nc1ccc(Oc2cccc(NC(=O)c3ccc4c(c3)C(=O)N(c3ccc(-c5sc(-c6ccc(N7C(=O)c8ccc(*)cc8C7=O)cc6)c(-c6ccccc6)c5-c5ccccc5)cc3)C4=O)c2)cc1` (repeat unit): the glass transition temperature was found to be 315.00 °C.
In the case of `*C(=O)Nc1ccc(Oc2cccc(Oc3ccc(NC(=O)c4ccc5c(c4)C(=O)N(c4ccc(Sc6ccc(Oc7ccc(Sc8ccc(N9C(=O)c%10ccc(*)cc%10C9=O)cc8)cc7)cc6)cc4)C5=O)cc3)c2)cc1` (repeat unit) it was 179.00 °C; in that of `*C(=O)c1ccc2c(c1)C(=O)N(c1ccc(Oc3ccc(NC(=O)c4cccc(C(=O)Nc5ccc(Oc6ccc(N7C(=O)c8ccc(*)cc8C7=O)cc6)cc5)c4)cc3)cc1)C2=O` (repeat unit), 232.00 °C; in that of `*Oc1ccc(NC(=C(C#N)C#N)c2ccc(C(Nc3ccc(*)cc3)=C(C#N)C#N)cc2)cc1` (repeat unit), 274.00 °C.
As to `*Oc1ccc(NC(=O)c2cc(C(=O)Nc3ccc(*)cc3)cc(C(F)(F)C(F)(F)C(F)(F)C(F)(F)F)c2)cc1` (repeat unit), the glass transition temperature was 257.00 °C.
On to `*Oc1ccc(NC(=O)c2cc(NC(=O)C34CC5CC(CC(C5)C3)C4)cc(C(=O)Nc3ccc(*)cc3)c2)cc1` (repeat unit), for which the glass transition temperature came out at 335.00 °C.
For `*Oc1ccc(NC(=O)c2ccc(C(=O)Nc3ccc(*)cc3)cc2)cc1` (repeat unit), the glass transition temperature worked out at 240.50 °C.
`*Oc1ccc(NC(=O)c2ccc(P(=O)(c3ccccc3)c3ccc(C(=O)Nc4ccc(Oc5ccc(P(=O)(c6ccccc6)c6ccc(*)cc6)cc5)cc4)cc3)cc2)cc1` (repeat unit): the glass transition temperature was determined as 225.00 °C.
In the case of `*Oc1ccc(NC(=O)c2cccc(C(=O)Nc3ccc(*)cc3)c2)cc1` (repeat unit) it was 264.00 °C; in that of `*Oc1ccc(Oc2ccc(C(=O)c3ccc(C(=O)c4ccc(*)cc4)cc3)cc2)cc1` (repeat unit), 152.00 °C; in that of `*Oc1ccc(Oc2ccc(C(=O)c3ccc(C(=O)c4ccc(*)cc4)cc3)cc2)cc1-c1ccc(S(=O)(=O)O)cc1` (repeat unit), 174.00 °C.
In turn, `*Oc1ccc(Oc2ccc(NC(=C(C#N)C#N)c3ccc(C(Nc4ccc(*)cc4)=C(C#N)C#N)cc3)cc2)cc1` (repeat unit) showed a glass transition temperature of 255.00 °C.
Compound `*Oc1cccc2ccc(Oc3ccc(NC(=O)c4ccc(C(c5ccc(C(=O)Nc6ccc(*)cc6)cc5)(C(F)(F)F)C(F)(F)F)cc4)cc3)cc12` (repeat unit) came in with a glass transition temperature of 252.00 °C.
Compound `*Oc1cccc2ccc(Oc3ccc(NC(=O)c4ccc(S(=O)(=O)c5ccc(C(=O)Nc6ccc(*)cc6)cc5)cc4)cc3)cc12` (repeat unit) yielded a glass transition temperature of 259.00 °C.
For `*Oc1cccc2ccc(Oc3ccc(NC(=O)c4cccc(C(=O)Nc5ccc(*)cc5)c4)cc3)cc12` (repeat unit), the glass transition temperature was found to be 256.00 °C.
Regarding `*c1ccc(-c2ccc(-n3c(-c4ccc(Oc5ccc(C(=O)c6ccc(C(=O)c7ccc(Oc8ccc(-c9nc%10ccccc%10n9*)cc8)cc7)cc6)cc5)cc4)nc4ccccc43)cc2)cc1` (repeat unit), the glass transition temperature is 259.00 °C.
Consider `*c1ccc(C(=O)Nc2ccc(Oc3ccc(NC(=O)c4ccc(Oc5ccc(-c6nn(*)c(=O)c7ccccc67)c6ccccc56)cc4)cc3)cc2)cc1` (repeat unit), for which the glass transition temperature was 317.50 °C.
Compound `*c1ccc(C(=O)Nc2ccc(Oc3ccc(Oc4ccc(NC(=O)c5ccc(Oc6ccc(-c7nn(*)c(=O)c8ccccc78)c7ccccc67)cc5)cc4)cc3)cc2)cc1` (repeat unit) came in with a glass transition temperature of 289.50 °C.
In the case of `*c1ccc(C(=O)Nc2ccc(Oc3ccc(Oc4ccc(NC(=O)c5ccc(Oc6ccc(-c7nn(*)c(=O)c8ccccc78)c7ccccc67)cc5)cc4C(F)(F)F)cc3)c(C(F)(F)F)c2)cc1` (repeat unit), the glass transition temperature stood at 281.50 °C.
Next, `*c1ccc(C(=O)Nc2ccc(Oc3ccc(S(=O)(=O)c4ccc(Oc5ccc(NC(=O)c6ccc(N7C(=O)c8ccc(-c9cccc%10c9C(=O)N(*)C%10=O)cc8C7=O)cc6)cc5)cc4)cc3)cc2)cc1` (repeat unit): 287.00 °C; `*c1ccc(Oc2ccc(C(=O)c3ccc(C(=O)c4ccc(Oc5ccc(N6C(=O)c7ccc(-c8ccc9c(c8)C(=O)N(*)C9=O)cc7C6=O)cc5)cc4)cc3)cc2)cc1` (repeat unit): 245.00 °C.
The compound `*c1ccc(Oc2ccc(NC(=O)c3ccc(Oc4ccc5c(c4)C(=O)N(*)C5=O)cc3)cc2)cc1` (repeat unit) had a glass transition temperature of 262.00 °C.
For the compound `*c1ccc(Oc2ccc(NC(=O)c3ccc(Oc4cccc5c4C(=O)N(*)C5=O)cc3)cc2)cc1` (repeat unit), the glass transition temperature worked out at 253.00 °C.
As for `*c1ccc(Oc2ccc(Oc3ccc(NC(=O)c4ccc(Oc5ccc6c(c5)C(=O)N(*)C6=O)cc4)cc3)cc2)cc1` (repeat unit), the glass transition temperature was 242.00 °C.
Next, `*c1ccc(Oc2ccc(Oc3ccc(NC(=O)c4ccc(Oc5cccc6c5C(=O)N(*)C6=O)cc4)cc3)cc2)cc1` (repeat unit): 244.00 °C; `*c1ccc(Oc2ccc(Oc3ccc(NC(=O)c4cccc(Oc5ccc6c(c5)C(=O)N(*)C6=O)c4)cc3)cc2)cc1` (repeat unit): 213.00 °C; `*c1ccc2c(c1)C(=O)N(c1ccc(C(=O)Nc3ccc(Oc4cccc(Oc5ccc(NC(=O)c6ccc(N7C(=O)c8ccc(C(*)(C(F)(F)F)C(F)(F)F)cc8C7=O)cc6)cc5)c4)cc3)cc1)C2=O` (repeat unit): 286.00 °C.
In the case of `*c1cccc(C(=O)Nc2ccc(Oc3ccc(NC(=O)c4cccc(N5C(=O)c6ccc(-c7ccc8c(c7)C(=O)N(*)C8=O)cc6C5=O)c4)cc3)cc2)c1` (repeat unit) it was 253.00 °C; in that of `*c1cccc(C(=O)Nc2ccc(Oc3ccc(Oc4ccc(NC(=O)c5cccc(N6C(=O)c7ccc(-c8ccc9c(c8)C(=O)N(*)C9=O)cc7C6=O)c5)cc4)cc3)cc2)c1` (repeat unit), 244.00 °C; in that of `*c1cccc(C(=O)Nc2ccc(Oc3ccc(Oc4ccc(NC(=O)c5cccc(N6C(=O)c7ccc(-c8cccc9c8C(=O)N(*)C9=O)cc7C6=O)c5)cc4)cc3)cc2)c1` (repeat unit), 268.00 °C.
Take `*c1cccc(C(=O)Nc2ccc(Oc3ccc(Oc4ccc(Oc5ccc(NC(=O)c6cccc(N7C(=O)c8ccc(-c9ccc%10c(c9)C(=O)N(*)C%10=O)cc8C7=O)c6)cc5)cc4)cc3)cc2)c1` (repeat unit): the glass transition temperature was determined as 244.00 °C.
Next, `*c1cccc(C(=O)Nc2ccc(Oc3ccc(S(=O)(=O)c4ccc(Oc5ccc(NC(=O)c6cccc(N7C(=O)c8ccc(-c9ccc%10c(c9)C(=O)N(*)C%10=O)cc8C7=O)c6)cc5)cc4)cc3)cc2)c1` (repeat unit): 258.00 °C; `*c1cccc(C(=O)Nc2ccc(Oc3ccc(S(=O)(=O)c4ccc(Oc5ccc(NC(=O)c6cccc(N7C(=O)c8ccc(-c9cccc%10c9C(=O)N(*)C%10=O)cc8C7=O)c6)cc5)cc4)cc3)cc2)c1` (repeat unit): 263.00 °C.
In turn, `*c1cccc(C(=O)Nc2ccc(Oc3cccc(Oc4ccc(NC(=O)c5cccc(N6C(=O)c7ccc(-c8ccc9c(c8)C(=O)N(*)C9=O)cc7C6=O)c5)cc4)c3)cc2)c1` (repeat unit) yielded a glass transition temperature of 253.00 °C.
`*c1cccc(C(=O)Nc2ccc(Oc3cccc(Oc4ccc(NC(=O)c5cccc(N6C(=O)c7ccc(-c8cccc9c8C(=O)N(*)C9=O)cc7C6=O)c5)cc4)c3)cc2)c1` (repeat unit) registered a glass transition temperature of 253.00 °C.
